Reference: patent US10538554B2, “Peptides and uses therefor as antiviral agents” (priority 2015, dated 2020)
Bridge positions count the residues as written; N and C are the ends. Square brackets hold non-standard residues; d marks the D form. Peptide text beside a SMILES is read from it.

Experiments:
H3N2 A/HK/8/1968 = settings: A/HK/8/1968, 48 h; for % inhibition H3N2: 10 μM
[1] = test system: H1N1 A1/Malaysia/302/1954; settings: A1/Malaysia/302/1954, 48 h; for % inhibition H1N1: 10 μM
H1N1 A/PR/8/1934 = settings: A/PR/8/1934, 48 h; for % Inhibition PR/8: 10 μM
[2] = test system: Influenza B/MALAYSIA/2506/04
H3N8 A/Miami/2/63 = settings: A/Miami/2/63, 48 h; for % inhibition H3N8: 10 μM
H9N2 A/Iran/16/2000 = settings: 48 h; for % inhibition H9N2: 10 μM
H1N1 A/NY/18/2009 = settings: A/NY/18/2009, 48 h; for % Inhibition Pdm 2009: 10 μM

| Compound | IC50 (H3N2 A/HK/8/1968) [nM] | IC50 [1] [nM] | IC50 (H1N1 A/PR/8/1934) [nM] | % Inhibition (H1N1 A/PR/8/1934; 1 μM) [%] | IC50 [2] [nM] | IC50 (H3N8 A/Miami/2/63) [nM] | IC50 (H9N2 A/Iran/16/2000) [nM] | IC50 (H1N1 A/NY/18/2009) [nM] | % inhibition H3N2 (H3N2 A/HK/8/1968) [%] | % inhibition H1N1 [1] [%] | % Inhibition PR/8 (H1N1 A/PR/8/1934) [%] | % inhibition H3N8 (H3N8 A/Miami/2/63) [%] | % inhibition H9N2 (H9N2 A/Iran/16/2000) [%] | % Inhibition Pdm 2009 (H1N1 A/NY/18/2009) [%] |
| --- | --- | --- | --- | --- | --- | --- | --- | --- | --- | --- | --- | --- | --- | --- |
| CC[C@@H](C)[C@H]1NC(=O)[C@@H](Cc2ccccc2)NC(=O)[C@@H]([C@H](C)O)NC(=O)[C@@H](Cc2ccccc2)NC(=O)[C@@H](Cc2c[nH]c3ccccc23)NC(=O)[C@@H](Cc2c[nH]c3ccccc23)NC(=O)[C@H](NC(=O)[C@H](CCCCN)NC(=O)[C@H](CCCCN)NC(=O)[C@H](CCCNC(=N)N)NC(=O)[C@@H](N)CCCNC(=N)N)CSSC[C@H](C(=O)O)NC(=O)[C@@H](C)NC1=O [PSP VI A1, H-RRKKcwwftfiac-OH] (H-RRKK[dC][dW][dW][dF][dT][dF][dI][dA][dC]-OH; disulfide 5-13) | 1.9 | 5 | 4 | 98.5 | 1.2 | 2 | 10.4 | 0.13 | – | – | – | – | – | – |
| CC[C@@H](C)[C@H]1NC(=O)[C@@H](Cc2ccccc2)NC(=O)[C@@H](Cc2c[nH]c3ccccc23)NC(=O)[C@@H](Cc2ccccc2)NC(=O)[C@@H](Cc2c[nH]c3ccccc23)NC(=O)[C@@H]([C@H](C)O)NC(=O)[C@H](NC(=O)[C@H](CCCCN)NC(=O)[C@H](CCCCN)NC(=O)[C@H](CCCNC(=N)N)NC(=O)[C@@H](N)CCCNC(=N)N)CSSC[C@H](C(=O)O)NC(=O)[C@@H](CC(N)=O)NC1=O [PSP IV A19, H-RRKKctwfwfinc-OH] (H-RRKK[dC][dT][dW][dF][dW][dF][dI][dN][dC]-OH; disulfide 5-13) | – | – | – | – | – | – | – | – | 94 | 87 | 90 | 94 | 95 | 94 |
| CC[C@@H](C)[C@H]1NC(=O)[C@@H](Cc2ccccc2)NC(=O)[C@H]2CCCN2C(=O)[C@@H](Cc2ccccc2)NC(=O)[C@@H](Cc2c[nH]c3ccccc23)NC(=O)[C@@H]([C@H](C)O)NC(=O)[C@H](NC(=O)[C@H](CCCCN)NC(=O)[C@H](CCCCN)NC(=O)[C@H](CCCNC(=N)N)NC(=O)[C@@H](N)CCCNC(=N)N)CSSC[C@H](C(=O)O)NC(=O)[C@@H](CC(N)=O)NC1=O [PSP IV A13, H-RRKKctwfpfinc-OH] (H-RRKK[dC][dT][dW][dF][dP][dF][dI][dN][dC]-OH; disulfide 5-13) | – | – | – | – | – | – | – | – | 74 | 52 | 66 | 69 | 55 | 65 |
| CC[C@@H](C)[C@H]1NC(=O)[C@@H](Cc2ccccc2)NC(=O)[C@@H](CO)NC(=O)[C@@H](Cc2ccccc2)NC(=O)[C@@H](Cc2c[nH]c3ccccc23)NC(=O)[C@@H]([C@H](C)O)NC(=O)[C@H](NC(=O)[C@H](CCCCN)NC(=O)[C@H](CCCCN)NC(=O)[C@H](CCCNC(=N)N)NC(=O)[C@@H](N)CCCNC(=N)N)CSSC[C@H](C(=O)O)NC(=O)[C@@H](CC(N)=O)NC1=O [PSP IV A16, H-RRKKctwfsfinc-OH] (H-RRKK[dC][dT][dW][dF][dS][dF][dI][dN][dC]-OH; disulfide 5-13) | – | – | – | – | – | – | – | – | 96 | 91 | 78 | 93 | 89 | 81 |
| CC[C@@H](C)[C@H]1NC(=O)[C@@H](Cc2ccccc2)NC(=O)[C@@H](Cc2c[nH]cn2)NC(=O)[C@@H](Cc2ccccc2)NC(=O)[C@@H](Cc2c[nH]c3ccccc23)NC(=O)[C@@H]([C@H](C)O)NC(=O)[C@H](NC(=O)[C@H](CCCCN)NC(=O)[C@H](CCCCN)NC(=O)[C@H](CCCNC(=N)N)NC(=O)[C@@H](N)CCCNC(=N)N)CSSC[C@H](C(=O)O)NC(=O)[C@@H](CC(N)=O)NC1=O [PSP IV A7, H-RRKKctwfhfinc-OH] (H-RRKK[dC][dT][dW][dF][dH][dF][dI][dN][dC]-OH; disulfide 5-13) | – | – | – | – | – | – | – | – | 80 | 68 | 73 | 79 | 65 | 71 |
| CC[C@@H](C)[C@H]1NC(=O)[C@@H](Cc2ccccc2)NC(=O)[C@@H](CCC(N)=O)NC(=O)[C@@H](Cc2ccccc2)NC(=O)[C@@H](Cc2c[nH]c3ccccc23)NC(=O)[C@@H]([C@H](C)O)NC(=O)[C@H](NC(=O)[C@H](CCCCN)NC(=O)[C@H](CCCCN)NC(=O)[C@H](CCCNC(=N)N)NC(=O)[C@@H](N)CCCNC(=N)N)CSSC[C@H](C(=O)O)NC(=O)[C@@H](CC(N)=O)NC1=O [PSP IV A14, H-RRKKctwfqfinc-OH] (H-RRKK[dC][dT][dW][dF][dQ][dF][dI][dN][dC]-OH; disulfide 5-13) | – | – | – | – | – | – | – | – | 83 | 66 | 77 | 83 | 68 | 74 |
| CC[C@@H](C)[C@H]1NC(=O)[C@@H](Cc2ccccc2)NC(=O)[C@@H]([C@H](C)CC)NC(=O)[C@@H](Cc2ccccc2)NC(=O)[C@@H](Cc2c[nH]c3ccccc23)NC(=O)[C@@H]([C@H](C)O)NC(=O)[C@H](NC(=O)[C@H](CCCCN)NC(=O)[C@H](CCCCN)NC(=O)[C@H](CCCNC(=N)N)NC(=O)[C@@H](N)CCCNC(=N)N)CSSC[C@H](C(=O)O)NC(=O)[C@@H](CC(N)=O)NC1=O [PSP IV A8, H-RRKKctwfifinc-OH] (H-RRKK[dC][dT][dW][dF][dI][dF][dI][dN][dC]-OH; disulfide 5-13) | – | – | – | – | – | – | – | – | 96 | 92 | 97 | 96 | 92 | 95 |
| CC[C@@H](C)[C@H]1NC(=O)[C@@H](Cc2ccccc2)NC(=O)[C@@H](CC(C)C)NC(=O)[C@@H](Cc2ccccc2)NC(=O)[C@@H](Cc2c[nH]c3ccccc23)NC(=O)[C@@H]([C@H](C)O)NC(=O)[C@H](NC(=O)[C@H](CCCCN)NC(=O)[C@H](CCCCN)NC(=O)[C@H](CCCNC(=N)N)NC(=O)[C@@H](N)CCCNC(=N)N)CSSC[C@H](C(=O)O)NC(=O)[C@@H](CC(N)=O)NC1=O [PSP IV A10, H-RRKKctwflfinc-OH] (H-RRKK[dC][dT][dW][dF][dL][dF][dI][dN][dC]-OH; disulfide 5-13) | – | – | – | – | – | – | – | – | 96 | 90 | 96 | 96 | 97 | 85 |
| CC[C@@H](C)[C@H]1NC(=O)[C@@H](Cc2ccccc2)NC(=O)[C@@H](CCSC)NC(=O)[C@@H](Cc2ccccc2)NC(=O)[C@@H](Cc2c[nH]c3ccccc23)NC(=O)[C@@H]([C@H](C)O)NC(=O)[C@H](NC(=O)[C@H](CCCCN)NC(=O)[C@H](CCCCN)NC(=O)[C@H](CCCNC(=N)N)NC(=O)[C@@H](N)CCCNC(=N)N)CSSC[C@H](C(=O)O)NC(=O)[C@@H](CC(N)=O)NC1=O [PSP IV A11, H-RRKKctwfmfinc-OH] (H-RRKK[dC][dT][dW][dF][dM][dF][dI][dN][dC]-OH; disulfide 5-13) | – | – | – | – | – | – | – | – | 90 | 89 | 85 | 93 | 84 | 88 |
